Results taken from publication PMC3532212 (PLoS ONE, 2012).
Each block holds one molecule with its values, some of them ahead of it.

Legend:
[1] = target: T1, Human S1P1 (Homo sapiens, UniProt P21453); experiment: B arrestin recruitment assay, Tango EDG1-bla U2OS cells; assay type: cell-based; settings: 18 hours agonist incubation
T1 construct: host or cells: U2OS (Tango EDG1-bla)
Description: (§1) Tango™ EDG1-bla U2OS cells (Human S1P1), Tango™ EDG3-bla U2OS cells (human S1P3), Tango™ EDG6-bla U2OS cells (human S1P4) and Tango™ EDG8-bla U2OS cells (human S1P5) cell lines were cultured and assayed according to manufacturers instructions with one modification; agonists incubated on the cells for 18 hours prior to addition of the GenBlazer substrate. Final DMSO concentration in the assay is 1%.

[2] = target: T2, human S1P3 (Homo sapiens, UniProt Q99500); experiment: B arrestin recruitment assay, Tango EDG3-bla U2OS cells; assay type: cell-based; settings: 18 hours agonist incubation
T2 construct: host or cells: U2OS (Tango EDG3-bla)
Description: as §1

[3] = target: T3, human S1P5 (Homo sapiens, UniProt Q9H228); experiment: B arrestin recruitment assay, Tango EDG8-bla U2OS cells; assay type: cell-based; settings: 18 hours agonist incubation
T3 construct: host or cells: U2OS (Tango EDG8-bla)
Description: as §1

[4] = system: anesthetized rats; experiment: Left ventricular contractility (LV dP/dtmax) in anesthetized rats; assay type: in vivo; settings: anesthetized rat
Description: The cardiovascular effects of FTY720 and BAF312 were tested in anesthetized rats (180–200 g). In brief, male Sprague Dawley rats (Charles River) were anesthetized with Inactin (110 mg/kg i.p.) and a tracheotomy performed. The femoral artery and veins were catheterized for measurement of mean arterial pressure and heart rate, collection of blood samples at 20-min intervals (0.2 mL/sample), and for compound infusion/hydration as previously described, [24]; blood samples were also withdrawn in vehicle-treated control rats. FTY720, infused as a hydrochloride salt (0.1, 0.3, 1.0 mg/kg/20-min free base equivalent solubilized in a 100% PEG-400 vehicle), or BAF312 (0.5, 1.5, 5.0 mg/kg/20-min solubilized in a 100% PEG-400 vehicle) were administered via three escalating 20-min infusions (0.011 mL/min) followed by a 1-hr post-treatment period. […] In a separate group of anesthetized rats in which left ventricular (LV) contractility was also recorded with a Millar pressure transducer introduced into the left ventricle, BAF312 was infused in the same dosing regimen as the studies described above (0.5, 1.5, 5.0 mg/kg/20-min solubilized in a 100% PEG-400 vehicle) and effects on LV dP/dtmax were recorded.

[5] = Plasma concentrations after a single oral dose in rats; assay type: in vivo; settings: rat; for Plasma concentration / concentration at 4 hr / concentration at 8 h / concentration at 24 h / concentration at 48 h / concentration at 72 h: mean±SEM; for time post-dose through which plasma values were detectable: FTY720 single oral dose; for concentration at 4 hr / concentration at 8 h / concentration at 24 h / concentration at 48 h / concentration at 72 h: male, Sprague Dawley, plasma
Description: Mean arterial pressure was assessed in conscious, freely moving male Sprague Dawley rats (n = 6–8/group; Charles River) instrumented with telemetry transmitters (DSI-Ponemah) and housed in metabolism cages as previously described, [26]. Tested compounds were solubilized in a 0.5% Methylcellulose/0.015% Tween 80 vehicle that was also dosed alone (p.o./QD, 5 mL/kg) as a control in the study. FTY720 was administered p.o. at 0.3, 1.0, 3.0, 10.0 mg/kg p.o. as a single dose or p.o./QD at 0.5, 1.5, and 5.0 mg/kg in a chronic study. BAF312 was administered p.o/QD at 0.3, 3.0, and 30 mg/kg as a single dose and in a chronic study. Mean arterial pressure and heart rate are shown as 1-hr and/or 24-hr mean values±SEM as described in the results. Blood samples in satellite rats were withdrawn at various timepoints as described in the results for analysis of plasma concentrations of the parent compound and, in the case of FTY720, also the phosphorylated metabolite, (S)-FTY720-P. Statistical analysis for the single-dose acute studies was based on one-way ANOVA to compare the treatment groups vs. vehicle for each time period after dosing (0–24 hrs, 24–48 hrs, and 48–72 hrs); statistical significance (p<0.05) was detected by Dunnett’s post-hoc test to compare treatment with vehicle controls. The statistical analysis in the chronic studies were based on one-way ANOVA with repeated measures to compare the treatment arms; statistical significance (p<0.05) was detected by Dunnett’s post-hoc test to compare treatment with vehicle controls.

[6] = system: rats; experiment: Urinary sodium excretion in rats; assay type: in vivo, rat; settings: subset of telemetry rats administered FTY720; unpublished preliminary observation
[7] = system: patients; design: method as in PMID 20089954; settings: 1-yr trial; cited from earlier work
[8] = system: rats; design: method as in PMID 12352874; settings: FTY720 5 mg/kg/d; cited from earlier work
[9] = FTY720 0.3 mg/kg single oral dose
[10] = FTY720 0.3 mg/kg single oral dose, 4 hr post-dose
[11] = FTY720 0.3 mg/kg single oral dose, 8 hr post-dose
[12] = FTY720 0.3 mg/kg single oral dose, 24 hr post-dose
[13] = FTY720 0.3 mg/kg single oral dose, 48 hr post-dose
[14] = FTY720 0.3 mg/kg single oral dose, 72 hr post-dose
[15] = FTY720 1.0 mg/kg single oral dose
[16] = FTY720 1.0 mg/kg single oral dose, 4 hr post-dose
[17] = FTY720 1.0 mg/kg single oral dose, 8 hr post-dose
[18] = FTY720 1.0 mg/kg single oral dose, 24 hr post-dose
[19] = FTY720 1.0 mg/kg single oral dose, 48 hr post-dose
[20] = FTY720 1.0 mg/kg single oral dose, 72 hr post-dose
[21] = FTY720 3.0 mg/kg single oral dose
[22] = FTY720 3.0 mg/kg single oral dose, 4 hr post-dose
[23] = FTY720 3.0 mg/kg single oral dose, 8 hr post-dose
[24] = FTY720 3.0 mg/kg single oral dose, 24 hr post-dose
[25] = FTY720 3.0 mg/kg single oral dose, 48 hr post-dose
[26] = FTY720 3.0 mg/kg single oral dose, 72 hr post-dose
[27] = FTY720 10 mg/kg single oral dose
[28] = FTY720 10.0 mg/kg single oral dose, 4 hr post-dose
[29] = FTY720 10.0 mg/kg single oral dose, 8 hr post-dose
[30] = FTY720 10.0 mg/kg single oral dose, 24 hr post-dose
[31] = FTY720 10.0 mg/kg single oral dose, 48 hr post-dose
[32] = FTY720 10.0 mg/kg single oral dose, 72 hr post-dose

T2 sequence (Q99500 whole entry): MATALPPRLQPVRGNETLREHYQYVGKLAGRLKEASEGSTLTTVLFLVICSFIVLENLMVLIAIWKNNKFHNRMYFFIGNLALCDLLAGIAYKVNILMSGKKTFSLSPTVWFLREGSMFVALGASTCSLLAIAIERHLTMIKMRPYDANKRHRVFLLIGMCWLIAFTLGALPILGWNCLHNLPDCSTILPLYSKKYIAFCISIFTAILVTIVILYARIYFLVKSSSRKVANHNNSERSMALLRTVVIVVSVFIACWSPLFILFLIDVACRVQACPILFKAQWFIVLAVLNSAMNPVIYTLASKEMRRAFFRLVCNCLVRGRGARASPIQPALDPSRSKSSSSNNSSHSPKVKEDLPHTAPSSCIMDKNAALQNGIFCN
T3 sequence (Q9H228 whole entry): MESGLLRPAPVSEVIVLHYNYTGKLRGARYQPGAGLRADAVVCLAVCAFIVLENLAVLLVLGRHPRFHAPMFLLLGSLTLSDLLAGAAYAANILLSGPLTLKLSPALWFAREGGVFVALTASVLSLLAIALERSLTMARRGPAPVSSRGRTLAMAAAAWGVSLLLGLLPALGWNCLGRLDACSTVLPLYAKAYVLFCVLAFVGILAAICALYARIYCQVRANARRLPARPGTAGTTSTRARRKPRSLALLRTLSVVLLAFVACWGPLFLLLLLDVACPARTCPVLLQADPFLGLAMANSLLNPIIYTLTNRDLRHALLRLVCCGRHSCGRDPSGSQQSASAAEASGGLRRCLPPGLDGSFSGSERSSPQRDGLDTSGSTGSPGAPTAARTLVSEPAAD
T1 sequence (P21453 whole entry): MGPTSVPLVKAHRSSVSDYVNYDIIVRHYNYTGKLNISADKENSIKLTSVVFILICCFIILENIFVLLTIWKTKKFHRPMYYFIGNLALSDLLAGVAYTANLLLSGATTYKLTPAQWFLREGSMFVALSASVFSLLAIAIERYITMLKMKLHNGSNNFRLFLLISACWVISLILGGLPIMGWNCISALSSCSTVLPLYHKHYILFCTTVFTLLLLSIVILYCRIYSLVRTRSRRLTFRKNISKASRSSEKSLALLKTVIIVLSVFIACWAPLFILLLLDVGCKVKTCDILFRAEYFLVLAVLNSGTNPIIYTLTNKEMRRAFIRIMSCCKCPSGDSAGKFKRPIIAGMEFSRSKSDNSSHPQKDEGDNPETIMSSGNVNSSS

EC50 [1]: 2.5 nM | EC50 [2]: > 10000 nM | EC50 [3]: 0.8 nM | decrease in dP/dt ([4]; BAF312, 5.0 mg/kg dose group): not maintained | LV dP/dtmax, below values in vehicle control animals ([4]; BAF312, end of the 1.5 mg/kg i.v. infusion): −5±4%
Structure (SMILES): CCc1cc(/C(C)=N/OCc2ccc(C3CCCCC3)c(C(F)(F)F)c2)ccc1CN1CC(C(=O)O)C1 [BAF312]

Plasma concentration at Tmax [5, 9]: 83 ± 3 nM | Plasma concentration [5, 10]: 66 ± 3 nM | Plasma concentration [5, 11]: 83 ± 3 nM | Plasma concentration [5, 12]: 43 ± 7 nM | Plasma concentration [5, 13]: 29 ± 3 nM | Plasma concentration [5, 14]: 4 ± 4 nM | Plasma concentration at Tmax [5, 15]: 263 ± 13 nM | Plasma concentration [5, 16]: 172 ± 16 nM | Plasma concentration [5, 17]: 263 ± 13 nM | Plasma concentration [5, 18]: 113 ± 2 nM | Plasma concentration [5, 19]: 81 ± 11 nM | Plasma concentration [5, 20]: 26 ± 4 nM | Plasma concentration at Tmax [5, 21]: 360 ± 55 nM | Plasma concentration [5, 22]: 285 ± 29 nM | Plasma concentration [5, 23]: 339 ± 36 nM | Plasma concentration [5, 24]: 360 ± 55 nM | Plasma concentration [5, 25]: 152 ± 14 nM | Plasma concentration [5, 26]: 165 ± 2 nM | Plasma concentration at Tmax [5, 27]: 1090 ± 124 nM | Plasma concentration [5, 28]: 559 ± 159 nM | Plasma concentration [5, 29]: 1145 ± 505 nM | Plasma concentration [5, 30]: 1090 ± 124 nM | Plasma concentration [5, 31]: 455 ± 57 nM | Plasma concentration [5, 32]: 629 ± 157 nM | time post-dose through which plasma values were detectable [5]: at least 72 hrs
Structure (SMILES): CCCCCCCCc1ccc(CC[C@](N)(CO)COP(=O)(O)O)cc1 [FTY720-P]

concentration at 4 hr [5, 10]: 10 ± 5 nM | concentration at 8 h [5, 11]: 14 ± 5 nM | concentration at 24 h [5, 12]: 15 ± 3 nM | concentration at 48 h [5, 13]: 13 ± 1 nM | concentration at 72 h [5, 14]: 7 ± 2 nM | concentration at 4 hr [5, 16]: 25 ± 3 nM | concentration at 8 h [5, 17]: 36 ± 5 nM | concentration at 24 h [5, 18]: 22 ± 2 nM | concentration at 48 h [5, 19]: 12 ± 1 nM | concentration at 72 h [5, 20]: 10 ± 1 nM | concentration at 4 hr [5, 22]: 62 ± 4 nM | concentration at 8 h [5, 23]: 79 ± 17 nM | concentration at 24 h [5, 24]: 91 ± 19 nM | concentration at 48 h [5, 25]: 53 ± 15 nM | concentration at 72 h [5, 26]: 34 ± 4 nM | concentration at 4 hr [5, 28]: 146 ± 18 nM | concentration at 8 h [5, 29]: 274 ± 46 nM | concentration at 24 h [5, 30]: 301 ± 31 nM | concentration at 48 h [5, 31]: 143 ± 16 nM | concentration at 72 h [5, 32]: 101 ± 21 nM | Plasma concentration at Tmax [5, 9]: 15 ± 3 nM | Plasma concentration at Tmax [5, 15]: 36 ± 5 nM | Plasma concentration at Tmax [5, 21]: 91 ± 19 nM | Plasma concentration at Tmax [5, 27]: 301 ± 31 nM | time post-dose through which plasma values were detectable [5]: at least 72 hrs
Structure (SMILES): CCCCCCCCc1ccc(CCC(N)(CO)CO)cc1 [FTY720]
urinary sodium excretion [6]: reduction in urinary sodium excretion | hypertension in patients [7]: 2–3 mmHg | 24-hr sodium excretion values and fractional excretion of sodium [8]: elicited reductions
